How the values were obtained:
[1] = test system: recombinant FAD-GDH (rAO-FAD-GDH) derived from Aspergillus oryzae; test: Thermal stabilization effect of stabilizing agents on rAO-FAD-GDH in solution (Examples 3-6); format: physicochemical; settings: for thermal stabilization effect on FAD-GDH (in words): 50° C. for 15 minutes, Example 3
Method: Enhancement of the thermal stability referred to herein means increasing of a residual ratio (%) of the GDH enzyme kept after giving the treatment with heat at a certain temperature for a certain time period to the composition comprising the GDH enzyme. In the present invention, the activity in the sample stored at 4° C. which is nearly completely kept is made 100%, this is compared with the activity in the GDH solution after giving the treatment with heat at a certain-temperature for a certain time period, and the residual ratio of the enzyme is calculated.
In the method for measuring the activity described in the method for measuring the GDH enzyme activity described later, an activity value (a) of GDH in the solution stored at 4° C. and an activity value (b) of GDH after giving the treatment with heat at a certain temperature for a certain time period were measured, a relative value[(b)/(a)×100] when the activity value (a) was made 100 was calculated. This relative value was made the residual ratio (%). Comparing the presence with the absence of the added compound, when the residual ratio was increased by the addition of the compound, it was determined that the thermal stability was enhanced.
In the present invention, the activity of FAD-dependent GDH is measured as follows.
The reaction-reagent is made by mixing 15.6 mL of the PIPES buffer, 0.2 mL of the DCPIP solution and 4 mL of the D-glucose solution.
(§1) The reaction reagent (3 mL) is preliminarily heated at 37° C. for 5 minutes. The GDH solution (0.1 mL) is added and gently mixed, subsequently the change of absorbance at 600 nm is recorded for 5 minutes using the spectrophotometer controlled to 37° C. using water as the control, and the change of absorbance per one minute (ΔODTEST) is calculated from the linear portion of the record. The solvent in which GDH will be dissolved in place of the blinded GDH solution is added to the reagent mixture, and the change of absorbance (ΔODBLANK) per one minute is measured. The GDH activity is calculated from these values according to the following formula. One unit (U) in the GDH activity is defined as the amount of the enzyme which reduces […] DCPIP for one minute in the presence of 200 mM D-glucose. Activity (U/mL)=[−(ΔODTEST−ΔODBLANK)×3.0×dilution scale]/(16.3×0.1×1.0) In the above formula, 3.0 represents a liquid amount (mL) of the reaction reagent+the enzyme solution, 16.3 represents a millimolar molecular absorbance coefficient (cm^2/μmol) in the condition for measuring this enzyme, 0.1 represents the liquid amount of the enzyme solution (mL) and 1.0 represents a light path length (cm) of the cell.
The study was performed in accordance with the method for measuring the FAD-GDH activity in Test Example 1 described above.
First, 50 mL of an enzyme solution obtained by dissolving the recombinant FAD-GDH (rAO-FAD-GDH)-derived from Aspergillus oryzae obtained in Example 1 at about 2 U/mL in an enzyme dilution solution (50 mM potassium phosphate buffer, pH 5.5, 0.1% Triton X-100) was prepared. Two tubes in which each stabilizing agent described in Table 1 had been added at each final concentration to 0.9 mL of this enzyme solution to make the total volume 1.0 mL were prepared.
(§2) In two tubes, one tube was stored at −4° C. and another tube was treated at 50° C. for 15 minutes. Then, the FAD-GDH activity in each tube was measured. The enzyme activity in the tube stored at 4° C. was made 100, and comparing with it, the activity value after being treated at 50° C. for 15 minutes was calculated as the residual activity ratio (%).
The method was in accordance with Example 3 described above.
The methods were in accordance with Example 3 above.

[2] = test system: recombinant FAD-GDH (rAT-FAD-GDH) derived from Aspergillus terreus; test: Thermal stabilization effect of stabilizing agents on rAT-FAD-GDH in solution (Example 9); format: physicochemical; settings: for Residual activity ratio (%) / GLD activity value (U/ml) 50° C., 15 min: Table 10, buffer 50 mM K-PB, stabilizer at each final concentration described in Table 1; for Residual activity ratio (%): 50° C., 15 min versus 4° C.; for thermal stabilization effect on FAD-GDH (in words): rAT-FAD-GDH, 50° C. for 15 minutes, Example 9
Method: as §1, with “D-glucose.” for “D-glucose. Activity (U/mL)=[−(ΔODTEST−ΔODBLANK)×3.0×dilution scale]/(16.3×0.1×1.0) In the above formula, 3.0 represents a liquid amount (mL) of the reaction reagent+the enzyme solution, 16.3 represents a millimolar molecular absorbance coefficient (cm^2/μmol) in the condition for measuring this enzyme, 0.1 represents the liquid amount of the enzyme solution (mL) and 1.0 represents a light path length (cm) of the cell.”
Two tubes in which each stabilizing agent described in Table 1 had been added at each final concentration to 0.9 mL of this enzyme solution to make the total volume 1.0 mL were prepared.
as §2, with “4°” for “−4°”

[3] = stabilizer final concentration 0.10%, rAO-FAD-GDH, pH 5.5
[4] = stabilizer final concentration 0.20%, rAO-FAD-GDH, pH 5.5
[5] = stabilizer final concentration 1%, rAO-FAD-GDH about 2 U/mL, 50 mM potassium phosphate buffer pH 5.5, 0.1% Triton X-100, 4° C. sample = 100

| Compound | thermal stabilization effect on FAD-GDH (in words) ([1]; rAO-FAD-GDH) | Residual activity ratio (%) after treatment at 50° C., 15 min [1, 3] [%] | Residual activity ratio (%) [2] [%] | GLD activity value (U/ml) 50° C., 15 min [2] [U/ml] | thermal stabilization effect on FAD-GDH (in words) [2] | Residual activity ratio (%) after treatment at 50° C., 15 min [1, 4] [%] | Residual activity ratio (%) after treatment at 50° C., 15 min [1, 5] [%] | Residual activity ratio (%) after treatment at 50° C., 15 min ([1]; stabilizer final concentration 0.50%, rAO-FAD-GDH, pH 5.5) [%] |
| --- | --- | --- | --- | --- | --- | --- | --- | --- |
| N[C@H](CCC(=O)O)C(=O)O [D-glutamic acid] | high effect | 23.2 | 5.6 | 0.149 | high effect |  |  |  |
| N[C@@H](Cc1ccccc1)C(=O)O [L-phenylalanine] |  |  | 1.2 | 0.031 |  | 22.3 |  |  |
| CNCC(=O)O [Sarcosine] | high effect |  | 3.0 | 0.081 | high effect |  | 25.2 |  |
| O=C[C@H](O)[C@@H](O)[C@H](O)[C@H](O)C(=O)[O-].[Na+] [D-sodium glucuronate] | high effect |  | 10.0 | 0.279 | high effect |  | 56.2 |  |
| O=C(O)[C@@H]1CCCN1 [proline] | high effect |  |  |  | high effect |  |  |  |
| CO[C@H]1O[C@H](CO)[C@@H](O)[C@H](O)[C@H]1O [Methyl-a-D-glucoside] | high effect |  | 9.4 | 0.267 | high effect |  | 53.6 |  |
| OC[C@H]1O[C@@](CO)(O[C@H]2O[C@H](CO)[C@@H](O)[C@H](O)[C@H]2O)[C@@H](O)[C@@H]1O [Sucrose] | high effect |  | 2.1 | 0.058 | high effect |  | 44.1 |  |
| [Cl-].[Na+] [Sodium chloride] | high effect |  |  |  | high effect |  |  |  |
| CC(C)[C@H](N)C(=O)O [L-valine] |  |  | 1.6 | 0.043 |  |  |  | 25.5 |
| N[C@@H](Cc1c[nH]c2ccccc12)C(=O)O [L-triptophan] |  | 24.3 | 1.3 | 0.034 |  |  |  |  |
| O=C([O-])[C@H](O)[C@@H](O)[C@H](O)[C@H](O)CO.[Na+] [sodium gluconate] | high effect |  | 3.9 | 0.111 | high effect |  | 33.5 |  |
| NCCS(=O)(=O)O [Taurine] | high effect |  | 3.2 | 0.081 | high effect |  | 23.8 |  |
| O=C(O)[C@@H]1CCCN1 [L-(−)-proline] |  |  | 1.8 | 0.048 |  |  | 25.2 |  |
| N[C@H](Cc1ccccc1)C(=O)O [D-phenylalanine] |  | 23.6 | 2.3 | 0.062 |  |  |  |  |
| Cl.NCCCC[C@H](N)C(=O)O [L-lysine hydrochloride] | high effect |  | 3.5 | 0.093 | high effect |  | 23.4 |  |
| O=C(O)[C@H]1CCCN1 [D-proline] |  |  | 2.8 | 0.079 |  |  | 24.8 |  |
| N[C@@H](CC(=O)O)C(=O)O [L-aspartic acid] |  |  | 0.2 | 0.005 |  |  | 12.2 |  |
| CC(C)C[C@H](N)C(=O)O [L-leucine] |  | 22.2 | 1.4 | 0.038 |  |  |  |  |
| O=C1O[C@H](CO)[C@@H](O)[C@H](O)[C@H]1O [Glucono-1,5-lactone] |  |  | 0.1 | 0.003 |  |  | 0.0 |  |
| O=C(O)CC(=O)O [Malonic acid] | high effect |  |  |  | high effect |  |  |  |
| O=C[C@H](O)[C@@H](O)[C@H](O)CO [D-(+)-xylose] | high effect |  | 18.5 | 0.516 | high effect |  | 68.5 |  |
| O=C(O)C1OC(O)C(O)C(O)C1O [D-a-galacturonic acid] |  |  | 0.2 | 0.004 |  |  | 0.0 |  |
| O=C(O)CCCC(=O)O [Glutaric acid] | high effect |  |  |  | high effect |  |  |  |
| OC[C@H]1O[C@@H]2O[C@H]3[C@H](O)[C@@H](O)[C@@H](O[C@H]4[C@H](O)[C@@H](O)[C@@H](O[C@H]5[C@H](O)[C@@H](O)[C@@H](O[C@H]6[C@H](O)[C@@H](O)[C@@H](O[C@H]7[C@H](O)[C@@H](O)[C@@H](O[C@H]1[C@H](O)[C@H]2O)O[C@@H]7CO)O[C@@H]6CO)O[C@@H]5CO)O[C@@H]4CO)O[C@@H]3CO [a-cyclodextrin] |  |  | 1.5 | 0.044 |  |  | 44.1 |  |
| N[C@@H](Cc1ccccc1)C(=O)O [phenylalanine] | high effect |  |  |  | high effect |  |  |  |
| NC(=O)C[C@H](N)C(=O)O [L-asparagine] |  |  | 1.6 | 0.044 |  | 22.8 |  |  |

Reference: US20080090278A1, “METHOD FOR ENHANCING STABILITY OF A COMPOSITION COMPRISING SOLUBLE GLUCOSE DEHYDROGENASE (GDH)” (TOYO BOSEKI KABUSHIKI KAISHA, priority 2006, published 2008)
